Patent US20190153021A1, “THERAPEUTIC COMPOUNDS” (UNIVERSITY OF IOWA RESEARCH FOUNDATION, priority 2015, published 2019)

What was measured:
[1] = simplified steroidal aglycone; cited from earlier work
[2] = In vivo efficacy of OSW-1
dormant cancer cells = details: independent of cell cycle; cited from earlier work
[3] = test system: NCI 60 cell-line tumor panel; details: cited from earlier work
[4] = Metabolic stability and pharmacokinetics, cleavage of ester groups in mouse blood; type: in vitro ADME

Compound | in vitro anticancer activity compared with compound 1 [1] | in vivo efficacy [2] | concentration that effectively kills dormant cancer cells (dormant cancer cells) | IC50 ([3]; mean over NCI 60-cell in vitro screen) [nM] | anticancer activities, times more potent than many well-known anticancer drugs in clinical use ([3]; relative potency) | pharmacokinetics (PK) [4] | metabolic stability: cleavage of the two ester groups ([4]; enzymes in mouse blood, gives major metabolite 2)
COc1ccc(C(=O)OC2C(OC3C(O)COC(O[C@H]4C[C@@H]5[C@H](CC[C@H]6[C@H]5CC=C5C[C@@H](O)CC[C@@]56C)[C@H]4[C@H](C)CCCC(C)C)C3OC(C)=O)OCC(O)C2O)cc1 (stereo partly shown) [Compound 3] | similar |  |  |  |  |  | 
COc1ccc(C(=O)O[C@H]2[C@H](O[C@@H]3[C@@H](OC(C)=O)[C@H](O[C@H]4C[C@H]5[C@@H]6CC=C7C[C@@H](O)CC[C@]7(C)[C@H]6CC[C@]5(C)[C@@]4(O)[C@H](C)C(=O)CCC(C)C)OC[C@@H]3O)OC[C@@H](O)[C@@H]2O)cc1 [OSW-1] |  | relatively weak | sub-nM | 0.78 | 10-100 times | poor | quickly cleaved
